Format in all cases: physicochemical
Holding throughout (conditions): magnesium oxide raw material

Data set [1] can be described thus: Bulk density, 100 mL stainless steel cup. On the procedure: The bulk density of magnesium oxide particles to be used in the present invention may be set to an upper limit of 0.8 g/mL or less, or 0.7 g/mL or less, since too high a density may cause a decrease in hardness. On the other hand, since too low bulk density may cause capping and lamination, the lower limit may be 0.1 g/mL or more, or 0.2 g/mL or more. Bulk density can be measured, e.g., using a 100 mL stainless steel cup (actual mass value (g)/100 (mL)).
(§1) The physical properties of the magnesium oxide used in these examples were measured, and the results were as follows. • Average particle size: 7.691 μm (measured according to laser diffraction scattering using a Microtrac Bell MT3300 EX2) • Bulk density: 0.249 g/mL (measured with 100 mL stainless steel cup (actual mass value (g)/100 (mL)) • Angle of repose: 41.7° (measured using MT-1 Multitester from Seishin Enterprise Co., Ltd.)
The weighed raw materials of magnesium oxide and internal additives were put into a polyethylene bag (1100 mm×600 mm) and mixed by shaking the bag 30 times from side to side. After the mixing, the bulk density was measured using a 100 mL stainless steel cup (actual mass value (g)/100 (mL)).
[formula] […]

The nature of data set [2]: Average particle size of magnesium oxide, laser diffraction scattering, MT3300 EX2. As for the experimental part: The average particle size and average particle diameter of the magnesium oxide particles of the present invention and magnesium hydroxide particles used as raw materials therefor can be measured according to laser diffraction scattering method with a commonly used instrument, such as a particle size analyzer (MT3300EX2 from Microtrac Bell Corporation).
as §1

A short description of data set [3]: Angle of repose, Multitester MT-1. As for the experimental part: The angle of repose of magnesium oxide particles to be used in the present invention may be set to an upper limit of 50° or less, or 48° or less, since an excessively large angle of repose may lead to a variation in the mass of the resulting tablets during tableting due to deteriorated flowability. On the other hand, the lower limit of the angle of repose is not specified because the lower the angle of repose, the better. The angle of repose can be measured, e.g., using Multitester MT-1 from Seishin Enterprise Co., Ltd.
as §1
After mixing, the following items were evaluated. • Bulk density: Measured with 100 mL stainless steel cup (actual mass value (g)/100 (mL) • Angle of repose: Measured using MT-1 Multitester from Seishin Enterprise Co., Ltd.

Data on 1 compound can be found in US20250127725A1, “MAGNESIUM OXIDE TABLETS” (SETOLAS Holdings, Inc., priority 2021, published 2025).

Take `[O]=[Mg]` [Magnesium oxide]: the Bulk density in data set [1] was found to be 0.249 g/mL. In addition, the Average particle size in data set [2] turned out to be 7.691 μm. Further, in data set [3], the Angle of repose turned out to be 41.7 °.
